Here are results for 14 molecules from US5446049A, “Azanoradamantanes for treatment of conditions responsive to 5-HT agonists and/or antagonists” (priority 1994, dated 1995).

One assay deals with T1, 5-HT3 receptor (Rattus norvegicus, UniProt P35563).
T1 construct: Brain cortices were obtained from male rats and a membrane fraction prepared by standard techniques; from tissue; host or cells: rat brain cortex membranes
T1 sequence (P35563 24-483): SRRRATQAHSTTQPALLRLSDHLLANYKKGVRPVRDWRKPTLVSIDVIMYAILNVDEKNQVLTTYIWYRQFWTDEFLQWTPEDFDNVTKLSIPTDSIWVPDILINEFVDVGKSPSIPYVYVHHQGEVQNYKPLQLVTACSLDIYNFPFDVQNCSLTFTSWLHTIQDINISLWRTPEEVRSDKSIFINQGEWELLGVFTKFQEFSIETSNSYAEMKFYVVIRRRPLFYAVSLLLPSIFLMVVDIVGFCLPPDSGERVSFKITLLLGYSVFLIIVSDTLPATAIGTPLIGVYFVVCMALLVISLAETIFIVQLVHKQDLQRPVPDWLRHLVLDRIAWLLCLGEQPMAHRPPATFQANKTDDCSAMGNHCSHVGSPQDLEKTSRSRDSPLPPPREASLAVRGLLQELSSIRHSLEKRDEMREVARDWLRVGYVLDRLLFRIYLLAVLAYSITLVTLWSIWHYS
The experiment in a line: 5-HT3 radioligand receptor binding assay ([3H]-GR65630, rat brain cortex membranes). The procedure: (§1) (Baxter et al., Naunyn Schmied Arch. Pharmacol, 1991, 343, 439). […] One with skill in the art could determine the activity of the compounds of the present invention using the methodology of these assays, described herein, without undue experimentation.
Procedure: GR65630 binds to the 5-HT3 receptor. Brain cortices were obtained from male rats and a membrane fraction prepared by standard techniques. 0.04 mg of membrane prep was incubated with 0.2 nM [^3 H]-GR65630 for 66 minutes at 22° C. […] Membranes were filtered and washed 3 times and the filters were counted to determine [^3 H]-GR65630 specifically bound. (Kilpatrick G. J., Jones B. J. and Tyers M. B., Identification and Distribution of 5-HT3 Receptors in Rat Brain Using Radioligand Binding Assay, Nature, 330, 746-748 (1987)).

Assay [1] concerns the target T2, 5-HT4 receptor (Rattus norvegicus, UniProt Q62758).
T2 construct: The inner tunica muscularis mucosa was mounted under 0.2-0.3 g of tension in a tissue bath; from tissue; host or cells: rat intrathoracic oesophagus, tunica muscularis mucosae
The class given is cell-based. The note with it: Table I; tissues from 5 rats; carbachol 3 μM; read-out: 5-HT4 Agonism (Rat TMM) In Vitro Assay: EC50 values.
Description: as §1
One 2 cm segment of intrathoracic esophagus proximal to the diaphragm was removed from male rats, weighing approximately 300 gm, and the outer muscle layers removed. The inner tunica muscularis mucosa was mounted under 0.2-0.3 g of tension in a tissue bath containing oxygenated Tyrode's solution at 37° C. […] Following a 30 min equilibrium period, tissues were isometrically contracted with carbachol (3 μM) to obtain a tonic contraction. A stable plateau was obtained within 20 min when test compound was added cumulatively to relax the muscle strip. EC50 values were obtained for each agonist in tissues from 5 rats.

For another assay, the system named is myenteric neurons. The conditions noted are these: Nemeth and Gullikson; cited from earlier work.
The subject of assay [2] is 5-HT4 receptor. The conditions noted are these: Dumuis et al 1989; mouse embryonic colliculi neurons; cited from earlier work.
The next assay has as its system 5-HT4 receptors. The note with it: Craig and Clarke; cited from earlier work.
A further assay has as its system antroduodenal motility. The conditions noted are these: Van Nueten et al 1989, cited from earlier work.
In another assay the test system is gastric emptying. The conditions noted are these: cited from earlier work; for gastric emptying: Gidda et al 1988; for gastric emptying rates in vivo: Buchheit et al 1985.
In the next assay the test system is GI transit. The note with it: cited from earlier work.
Assay [3] deals with guinea pig stomach strips. The conditions noted are these: cited from earlier work; for guinea pig stomach muscle strip contraction in vitro: Buchheit et al 1985.
A further assay relates to charcoal meal transit. The conditions noted are these: Kimura et al 1989; cited from earlier work.
The next assay concerns GI tract. The conditions noted are these: various animal models; cited from earlier work.
The subject of assay [4] is 5-HT3-mediated Bezold Jarisch reflex. The note with it: in vivo; cited from earlier work.

T2 sequence (Q62758 whole entry): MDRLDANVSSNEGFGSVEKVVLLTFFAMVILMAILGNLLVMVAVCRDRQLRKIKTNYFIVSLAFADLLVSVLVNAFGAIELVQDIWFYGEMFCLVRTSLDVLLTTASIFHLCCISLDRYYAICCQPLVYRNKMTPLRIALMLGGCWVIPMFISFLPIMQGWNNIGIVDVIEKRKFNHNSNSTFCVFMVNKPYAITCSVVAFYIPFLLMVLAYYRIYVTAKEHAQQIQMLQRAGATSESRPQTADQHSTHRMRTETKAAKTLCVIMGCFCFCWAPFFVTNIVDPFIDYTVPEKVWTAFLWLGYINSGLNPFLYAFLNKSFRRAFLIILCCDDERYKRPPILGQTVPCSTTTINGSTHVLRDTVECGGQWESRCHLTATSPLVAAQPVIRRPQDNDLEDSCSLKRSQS

In the case of `COc1cc(N)c(Cl)cc1C(=O)NC[C@@H]1[C@H]2C[C@H]3C[C@@H]1N(C3)C2` (relative stereo) [Example 1, 4-amino-5-chloro-N-(hexahydro-2β,6β-methano-1H,7aα-pyrrolizin-1β-ylmethyl)-2-methoxybenzamide], the Ki on 5-HT3 receptor (read-out: Ki, effect of compounds on [3H]-GR65630 bound, Table II, 0.2 nM [3H]-GR65630, 66 minutes, 22° C.) is 5.5 nM. Also, at 5-HT4 receptor [1], the EC50 was determined as 175 nM.
For `COc1cc(N)c(Cl)cc1C(=O)NC[C@@H]1[C@@H]2C[C@@H]3C[C@H]1N(C3)C2` (relative stereo) [Example 2, 4-amino-5-chloro-N-(hexahydro-2β,6β-methano-1H,7aα-pyrrolizin-1β-ylmethyl)-2-methoxybenzamide], the EC50 at 5-HT4 receptor [1] was determined as 415 nM.
For the molecule `COc1cc(N)c(Cl)cc1C(=O)NC1CCN2CCCC1C2` (stereo not shown) [BRL-24924], in the assay on myenteric neurons, the “ability to depolarize myenteric neurons versus 5-HT3 antagonism” value was “unrelated to their properties of 5-HT3 antagonism”. Further, the “agonist activity at 5-HT4 receptor” value with 5-HT4 receptor [2] is reported as “agonist activity”. In addition, in the assay on 5-HT4 receptors, the “peristaltic reflex evoked, mediated through agonism at 5-HT4 receptors” value is recorded as “mediated through agonism at 5-HT4 receptors”.
Take `COc1cc(N)c(Cl)cc1C(=O)NC1CCN(CCCOc2ccc(F)cc2)CC1OC` (stereo not shown) [Cisapride]: in the assay on antroduodenal motility, the “antroduodenal motility in dogs” value is given as “enhanced antroduodenal motility in dogs”. In addition, the “ability to depolarize myenteric neurons versus 5-HT3 antagonism” value in the assay with myenteric neurons is reported as “unrelated to their properties of 5-HT3 antagonism”. Further, the “agonist activity at 5-HT4 receptor” value with 5-HT4 receptor [2] is “agonist activity”.
Consider `COc1cc(N)c(Cl)cc1C(=O)NC[C@@H]1[C@H]2C[C@H]3C[C@@H]1N(C3)C2` [Example 3, 4-amino-5-chloro-N-(hexahydro-2β,6β-methano-1H,7aα-pyrrolizin-1S,1α-ylmethyl)-2-methoxybenzamide], for which the EC50 on 5-HT4 receptor [1] was 140 nM.
The same measure, in the same setting: the value for `COc1cc(N)c(Cl)cc1C(=O)NC[C@H]1[C@@H]2C[C@@H]3C[C@H]1N(C3)C2` [Example 4, 4-amino-5-chloro-N-(hexahydro-2β,6β-methano-1H,7aα-pyrrolizin-1R,1α-ylmethyl)-2-methoxybenzamide] was 274 nM.
On to `Cc1nccn1CC1CCc2c(c3ccccc3n2C)C1=O` (stereo not shown) [GR38032], for which the gastric emptying entry in the assay with gastric emptying is “enhanced gastric emptying”. Moreover, in the assay with GI transit (Gore et al 1990), the “GI transit in man” value is reported as “failed to accelerate GI transit” and the “colonic transit in man” value is given as “slowed colonic transit in man”. Further, the “small intestinal transit times or mouth-to-cecum transit times” value in the assay on GI transit (Talley et al 1989, man) is “did not alter small intestinal transit times or mout-to-cecum transit times”.
`CN1[C@@H]2CC[C@H]1C[C@@H](OC(=O)c1c[nH]c3ccccc13)C2` [ICS 205-930]: in [3], the “guinea pig stomach muscle strip contraction in vitro” value is “enhanced guinea pig stomach muscle strip contraction in vitro”. Besides, in the assay on antroduodenal motility (dogs), the “effect on the responses to cisapride when coadministered” value is reported as “did not affect the responses to cisapride”. Moreover, in the assay on gastric emptying, the “gastric emptying rates in vivo” value is recorded as “increases in gastric emptying rates in vivo” and the gastric emptying entry is “enhanced gastric emptying”.
In the case of `CN1[C@@H]2CC[C@H]1C[C@@H](OC(=O)c1cc(Cl)cc(Cl)c1)C2` [MDL 72222], in assay [3], the “guinea pig stomach muscle strip contraction in vitro” value is given as “enhanced guinea pig stomach muscle strip contraction in vitro”. Further, the “gastric emptying rates in vivo” value with gastric emptying is given as “increases in gastric emptying rates in vivo”.
Turning to `Cc1nccn1CC1CCc2c(c3ccccc3n2C)C1=O.Cl.O.O` (stereo not shown) [SN-307], in the assay with charcoal meal transit, the “transit of a charcoal meal in mice” value is on record as “enhanced transit of a charcoal meal in mice”.
Take `NCCc1c[nH]c2ccc(O)cc12` [Serotonin, 5-hydroxytryptamine]: in the assay with 5-HT4 receptors, the “peristaltic reflex evoked, mediated through agonism at 5-HT4 receptors” value is listed as “mediated through agonism at 5-HT4 receptors”. Besides, the “peristalsis in the GI tract” value in the assay with GI tract is “promote peristalsis in the GI tract”.
For `Cc1nc[nH]c1CCC(=O)c1cn(C)c2ccccc12` [[^3 H]-GR65630], at 5-HT3 receptor (radioligand, non-specific binding with 1 uM ICS 205-930), the “% Specific Binding” value was determined as 70%. The Bmax at 5-HT3 receptor (radioligand, rat brain cortex membranes) was found to be 154 fmol/mg protein.
As for `CCN(CC)CCNC(=O)c1cc(Cl)c(N)cc1OC` [metoclopramide], the “block of the 5-HT3-mediated Bezold Jarisch reflex” value in assay [4] was “blocks the 5-HT3-mediated Bezold Jarisch reflex”. The “guinea pig stomach muscle strip contraction in vitro” value in assay [3] is reported as “enhanced guinea pig stomach muscle strip contraction in vitro”. In addition, in [3] (Gunning and Naylor 1985), the “electrical-field stimulated contractions in guinea pig stomach strips” value is reported as “enhanced electrical-field stimulated contractions in guinea pig stomach strips”. In addition, the “gastric emptying rates in vivo” value in the assay with gastric emptying is “increases in gastric emptying rates in vivo”.
Regarding `COc1cc(N)c(Cl)cc1C(=O)NC1CN2CCC1CC2` (stereo not shown) [zacopride], the gastric emptying entry in the assay with gastric emptying is “enhanced gastric emptying”.

A word on the Ki: it is the dissociation constant of the complex between target and ligand, obtained from inhibition or displacement. As usually defined, the EC50 is the concentration that produces a half-maximal response.
